Data: ChEMBL document CHEMBL3817784, “The role of transporter ectodomains in drug recognition and binding: phlorizin and the sodiumglucose cotransporter” (Medchemcomm, 2016)

Key:
Homo sapiens [1] = species: Homo sapiens; assay: Binding affinity to SGLT1 D621W mutant (unknown origin) by tryptophan fluorescence quenching method
Homo sapiens [2] = species: Homo sapiens; assay: Binding affinity to SGLT1 R601W mutant (unknown origin) by tryptophan fluorescence quenching method
[3] = target: T1, Sodium/glucose cotransporter 2 (Rattus norvegicus, UniProt P53792); assay: Binding affinity to SGLT2 in isolated rat renal cortex brush border membranes using maleimide-PEG800-NHS to couple compound to AFM cantilever tip
T1 sequence (P53792 whole entry): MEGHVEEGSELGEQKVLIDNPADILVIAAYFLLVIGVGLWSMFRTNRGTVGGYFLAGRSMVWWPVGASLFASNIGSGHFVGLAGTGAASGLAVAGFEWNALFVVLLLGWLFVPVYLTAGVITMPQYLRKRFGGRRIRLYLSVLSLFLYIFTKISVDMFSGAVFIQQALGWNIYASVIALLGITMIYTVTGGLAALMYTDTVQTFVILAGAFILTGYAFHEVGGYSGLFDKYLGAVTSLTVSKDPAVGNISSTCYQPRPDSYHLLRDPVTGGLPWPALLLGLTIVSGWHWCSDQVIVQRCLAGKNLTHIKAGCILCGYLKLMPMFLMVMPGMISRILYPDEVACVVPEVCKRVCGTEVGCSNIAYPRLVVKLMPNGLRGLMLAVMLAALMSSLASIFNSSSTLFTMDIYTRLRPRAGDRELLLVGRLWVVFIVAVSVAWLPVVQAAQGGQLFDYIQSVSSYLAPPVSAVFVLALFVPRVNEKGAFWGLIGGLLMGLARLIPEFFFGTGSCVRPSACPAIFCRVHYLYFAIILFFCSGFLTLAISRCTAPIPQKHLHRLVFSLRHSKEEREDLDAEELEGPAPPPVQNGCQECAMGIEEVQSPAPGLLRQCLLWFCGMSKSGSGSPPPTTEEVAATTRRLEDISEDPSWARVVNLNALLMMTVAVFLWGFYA

| SMILES | Qmax (Homo sapiens [1]) | Qmax (Homo sapiens [2]) | Kd [3] |
| --- | --- | --- | --- |
| O=C(CCc1ccc(O)cc1)c1c(O)cc(O)cc1O[C@@H]1O[C@H](CO)[C@@H](O)[C@H](O)[C@H]1O | 80% | 67% | – |
| O=C(CCCCCS)Nc1cc(CCC(=O)c2c(O)cc(O)cc2O[C@@H]2O[C@H](CO)[C@@H](O)[C@H](O)[C@H]2O)ccc1O | – | – | 200 nM |
